Source: publication PMC4220016, “The binding characteristics and orientation of a novel radioligand with distinct properties at 5-HT3A and 5-HT3AB receptors” (Neuropharmacology, 2014)
Where “and” joins values, the source holds several entries; their conditions need not be identical. Equal entries are not always repeated. Where two headings read alike, the source gives them in different places.

Tests used:
[1] = target: T1, 5-HT3A receptor F226C (Homo sapiens, UniProt P46098, F221C); assay: Saturation binding of [^3H]VUF10166 at 5-HT3A receptor mutant; settings: F226C, Loop C; read-out: Kd (nM) Mean ± SEM
T1 construct: expressed in transfected cells; host or cells: HEK 293

[2] = target: T2, 5-HT3A receptor Y153C (Homo sapiens, UniProt P46098, Y148C); assay: as above; settings: Y153C, Loop E; read-out: Kd (nM) Mean ± SEM
T2 construct: expressed in transfected cells; host or cells: HEK 293

[3] = target: T3, 5-HT3AB receptors (Homo sapiens, UniProt O95264+P46098); assay: Kinetic measurements (association, dissociation) at 5-HT3AB receptors; format: binding; set-up: expressed in transfected cells; host or cells: HEK 293; settings: from kinetic rates, Equ (4), read-out: Kd(nM) (kon/koff)
T3 sequence (P46098 24-478): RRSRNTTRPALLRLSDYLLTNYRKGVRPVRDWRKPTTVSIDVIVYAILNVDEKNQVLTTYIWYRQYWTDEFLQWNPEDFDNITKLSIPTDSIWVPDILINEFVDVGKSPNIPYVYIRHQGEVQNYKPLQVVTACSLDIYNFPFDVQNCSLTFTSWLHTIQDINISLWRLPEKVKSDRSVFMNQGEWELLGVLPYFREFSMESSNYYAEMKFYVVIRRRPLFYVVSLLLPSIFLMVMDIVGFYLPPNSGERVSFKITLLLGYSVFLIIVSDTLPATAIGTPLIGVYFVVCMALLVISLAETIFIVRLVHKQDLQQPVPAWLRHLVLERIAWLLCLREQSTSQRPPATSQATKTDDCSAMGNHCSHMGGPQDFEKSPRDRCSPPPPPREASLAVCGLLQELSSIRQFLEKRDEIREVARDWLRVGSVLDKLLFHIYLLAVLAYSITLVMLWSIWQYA
T3 sequence (O95264 22-441): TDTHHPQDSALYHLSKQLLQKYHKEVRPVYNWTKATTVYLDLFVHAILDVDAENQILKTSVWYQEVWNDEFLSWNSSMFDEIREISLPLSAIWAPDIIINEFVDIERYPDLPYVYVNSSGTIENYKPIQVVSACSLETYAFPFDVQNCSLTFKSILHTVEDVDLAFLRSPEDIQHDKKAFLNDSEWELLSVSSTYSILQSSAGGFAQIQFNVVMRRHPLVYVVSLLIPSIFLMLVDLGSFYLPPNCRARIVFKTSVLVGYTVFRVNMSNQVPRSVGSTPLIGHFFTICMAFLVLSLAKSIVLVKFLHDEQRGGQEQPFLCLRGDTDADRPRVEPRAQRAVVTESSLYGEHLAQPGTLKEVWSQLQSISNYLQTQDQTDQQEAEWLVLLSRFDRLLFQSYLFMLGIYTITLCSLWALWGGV

[4] = target: T4, 5-HT3A receptors (Homo sapiens, UniProt P46098); assay: biochemical; format: binding; set-up: expressed in transfected cells; host or cells: HEK 293
T4 sequence (P46098 24-478): T3 sequence (P46098 24-478)

T2 sequence (P46098 24-478 Y148C): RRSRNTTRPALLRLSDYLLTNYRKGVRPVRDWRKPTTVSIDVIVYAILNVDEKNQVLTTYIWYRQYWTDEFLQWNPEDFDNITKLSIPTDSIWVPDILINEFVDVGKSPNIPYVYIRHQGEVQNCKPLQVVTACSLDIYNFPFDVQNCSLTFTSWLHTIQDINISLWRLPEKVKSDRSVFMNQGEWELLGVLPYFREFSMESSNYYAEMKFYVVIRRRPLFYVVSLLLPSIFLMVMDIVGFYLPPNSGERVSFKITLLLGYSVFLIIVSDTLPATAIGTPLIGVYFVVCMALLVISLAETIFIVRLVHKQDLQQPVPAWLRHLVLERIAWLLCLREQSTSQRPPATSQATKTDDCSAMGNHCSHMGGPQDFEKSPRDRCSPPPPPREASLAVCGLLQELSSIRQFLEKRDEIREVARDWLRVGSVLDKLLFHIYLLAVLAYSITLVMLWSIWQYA
T1 sequence (P46098 24-478 F221C): as the sequence (P46098 24-478 Y148C) above, with C125Y, F198C counted along it

## CN1CCN(c2nc3ccccc3nc2Cl)CC1 [[^3H]VUF10166] [2-chloro-3-(4-[^3H]methylpiperazin-1-yl)quinoxaline]
[1]
  Kd: 1.59 ± 0.08 nM
[2]
  Kd: 2.03 ± 0.33 nM
[3]; first component
  Kd: 0.38 nM
[3]; second component (>3 nM)
  Kd: 22 nM and 22.4 nM
[4]; 5-HT3A, tritiated ligand, transfected HEK 293 cells, 0 °C, read-out: Kd (nM) saturation
  Kd: 0.18 nM
[4]; Wild Type, Table 5 series, read-out: Kd (nM) Mean ± SEM
  Kd: 0.21 ± 0.04 nM
